T1: Acremonium strictum gluco-oligosaccharide oxidase GOOX-VN variant 1 Y300A, SEQ ID NO. 6 (Sarocladium strictum, UniProt D7PF15, A38V/S388N/Y300A)
T1 sequence (D7PF15 1-474 A38V/Y300A/S388N): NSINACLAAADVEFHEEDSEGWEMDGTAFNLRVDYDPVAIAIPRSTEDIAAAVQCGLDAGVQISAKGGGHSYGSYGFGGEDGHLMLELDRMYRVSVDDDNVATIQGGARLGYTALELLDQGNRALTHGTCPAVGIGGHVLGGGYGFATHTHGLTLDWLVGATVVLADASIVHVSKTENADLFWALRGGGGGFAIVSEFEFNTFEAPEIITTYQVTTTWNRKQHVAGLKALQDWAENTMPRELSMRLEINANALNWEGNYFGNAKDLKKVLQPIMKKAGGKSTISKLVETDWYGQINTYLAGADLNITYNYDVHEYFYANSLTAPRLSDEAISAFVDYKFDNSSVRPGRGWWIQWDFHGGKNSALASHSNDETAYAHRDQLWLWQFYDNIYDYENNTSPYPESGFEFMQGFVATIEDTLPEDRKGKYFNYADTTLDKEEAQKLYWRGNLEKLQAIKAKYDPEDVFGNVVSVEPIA

T2: Acremonium strictum gluco-oligosaccharide oxidase GOOX-VN variant 2 Y300N, SEQ ID NO. 7 (Sarocladium strictum, UniProt D7PF15, A38V/S388N/Y300N)
T2 sequence (D7PF15 1-474 A38V/Y300N/S388N): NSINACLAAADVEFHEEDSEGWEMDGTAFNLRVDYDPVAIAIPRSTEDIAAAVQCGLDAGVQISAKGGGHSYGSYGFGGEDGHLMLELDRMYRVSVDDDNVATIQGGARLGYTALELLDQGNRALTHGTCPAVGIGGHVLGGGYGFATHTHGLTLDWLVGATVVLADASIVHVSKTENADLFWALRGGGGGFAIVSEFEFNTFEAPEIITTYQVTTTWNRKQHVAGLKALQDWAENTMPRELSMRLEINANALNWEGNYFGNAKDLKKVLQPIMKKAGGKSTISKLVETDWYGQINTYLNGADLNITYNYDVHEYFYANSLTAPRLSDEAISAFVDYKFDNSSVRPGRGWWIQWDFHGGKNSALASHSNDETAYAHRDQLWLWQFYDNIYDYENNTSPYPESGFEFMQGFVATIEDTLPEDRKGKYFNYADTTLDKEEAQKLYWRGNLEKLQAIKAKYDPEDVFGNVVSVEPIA

T3: Acremonium strictum gluco-oligosaccharide oxidase GOOX-VN variant 3 W351F, SEQ ID NO. 8 (Sarocladium strictum, UniProt D7PF15, A38V/S388N/W351F)
T3 sequence (D7PF15 1-474 A38V/W351F/S388N): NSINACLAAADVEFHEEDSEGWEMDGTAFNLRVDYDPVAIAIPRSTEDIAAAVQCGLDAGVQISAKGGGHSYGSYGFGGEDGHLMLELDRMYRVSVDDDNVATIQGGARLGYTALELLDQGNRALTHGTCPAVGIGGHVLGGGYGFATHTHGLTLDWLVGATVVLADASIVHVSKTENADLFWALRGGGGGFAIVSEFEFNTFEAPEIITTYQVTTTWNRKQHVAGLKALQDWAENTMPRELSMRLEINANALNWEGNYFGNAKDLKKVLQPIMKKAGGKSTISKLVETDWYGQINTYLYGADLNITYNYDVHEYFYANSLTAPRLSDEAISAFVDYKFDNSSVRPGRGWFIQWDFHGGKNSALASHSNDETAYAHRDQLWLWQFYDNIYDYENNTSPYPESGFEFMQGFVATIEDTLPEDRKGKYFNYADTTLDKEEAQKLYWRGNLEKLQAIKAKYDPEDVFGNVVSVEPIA

T4: Acremonium strictum gluco-oligosaccharide oxidase GOOX-VN (type strain CBS 346.70, V38 and N388), SEQ ID NO. 2 (Sarocladium strictum, UniProt D7PF15, A38V/S388N)
T4 sequence (D7PF15 1-474 A38V/S388N): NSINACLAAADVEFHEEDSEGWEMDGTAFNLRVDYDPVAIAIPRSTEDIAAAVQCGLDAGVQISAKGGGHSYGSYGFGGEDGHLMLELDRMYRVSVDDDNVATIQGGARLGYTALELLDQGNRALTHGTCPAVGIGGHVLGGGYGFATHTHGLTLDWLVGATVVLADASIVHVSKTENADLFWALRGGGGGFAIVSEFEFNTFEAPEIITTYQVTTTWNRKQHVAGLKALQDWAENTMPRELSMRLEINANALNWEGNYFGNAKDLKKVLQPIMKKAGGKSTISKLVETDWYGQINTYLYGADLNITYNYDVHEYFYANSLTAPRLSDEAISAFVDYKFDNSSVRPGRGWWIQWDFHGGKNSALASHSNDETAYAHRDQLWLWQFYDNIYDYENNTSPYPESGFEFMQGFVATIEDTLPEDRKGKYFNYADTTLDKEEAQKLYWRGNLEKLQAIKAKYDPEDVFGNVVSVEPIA


How the values were obtained:
[1] = molecular target: T1, Acremonium strictum gluco-oligosaccharide oxidase GOOX-VN variant 1 Y300A, SEQ ID NO. 6; test: Enzymatic assay, kinetic analysis (chromogenic H2O2 assay) of Y300A; conditions: 37° C., pH 8.0
Protocol: (§1) A chromogenic assay was used to measure hydrogen peroxide production (15). Reactions contained 0.1 mM 4aminoantipyrine (4AA), 1 mM phenol, 0.5 U horseradish peroxidase, 40 mM Tris-HCl (pH 8.0), and different substrates were initiated by adding 0.2 μg of enzymes to the 250 μL reaction mixture. The production of H2O2 was coupled to the oxidation of 4aminoantipyrine by horseradish peroxidase and detected at 500 nm. Reactions were incubated at 37° C. for 15 min to measure the specific activity of GOOX on 10 mM of monosaccharide or 1 mM of oligosaccharide.
(§2) At least 12 substrate concentrations were included to obtain kinetic parameters for each substrate. Initial rates were obtained by measuring reaction products every 30 s for 15 min at 37° C. and pH 8.0, and kinetic parameters were calculated using the Michaelis-Menten equation (GraphPad Prism5 Software).

[2] = molecular target: T2, Acremonium strictum gluco-oligosaccharide oxidase GOOX-VN variant 2 Y300N, SEQ ID NO. 7; test: Enzymatic assay, kinetic analysis (chromogenic H2O2 assay) of Y300N; conditions: 37° C., pH 8.0
Protocol: as §1, §2

[3] = molecular target: T3, Acremonium strictum gluco-oligosaccharide oxidase GOOX-VN variant 3 W351F, SEQ ID NO. 8; test: Enzymatic assay, kinetic analysis (chromogenic H2O2 assay) of W351F; conditions: for kcat: 37° C., pH 8.0
Protocol: as §1, §2

[4] = molecular target: T4, Acremonium strictum gluco-oligosaccharide oxidase GOOX-VN (type strain CBS 346.70, V38 and N388), SEQ ID NO. 2; test: Enzymatic assay, kinetic analysis (chromogenic H2O2 assay) of GOOX-VN; conditions: for kcat: 37° C., pH 8.0
Protocol: as §1, §2

[5] = Chromogenic H2O2 oxidase assay on xylopentaose; conditions: 1 mM xylopentaose; 37° C., 15 min
Protocol: as §1
(§3) An additional eight mutations, identified as Y72F, Y72A, E247A, E314A, W351A, N388S, Q353N, Q384A, were created in GOOX-VN to assess the influence of these residues on the substrate selectivity of GOOX-VN. […] The specific activity of each mutant was then measured at 37° C. for 15 min using 10 mM mono-sugars and 1 mM oligosaccharides as performed for Y300A, Y300N, and W351F (Table 11).

[6] = Chromogenic H2O2 oxidase assay / kinetic analysis on cellobiose; conditions: 1 mM cellobiose; 37° C., 15 min
[7] = Chromogenic H2O2 oxidase assay / kinetic analysis on cellotriose; conditions: 1 mM cellotriose; 37° C., 15 min
Protocol: as §1, §2

[8] = Chromogenic H2O2 oxidase assay on xylohexaose; conditions: 1 mM xylohexaose; 37° C., 15 min
Protocol: as §1, §3

[9] = Chromogenic H2O2 oxidase assay on xylotetraose; conditions: 1 mM xylotetraose; 37° C., 15 min
Protocol: as §1, §3

[10] = Chromogenic H2O2 oxidase assay / kinetic analysis on xylobiose; conditions: 1 mM xylobiose; 37° C., 15 min
Protocol: as §1, §2

[11] = Chromogenic H2O2 oxidase assay / kinetic analysis on xylotriose; conditions: 1 mM xylotriose; 37° C., 15 min
Protocol: as §1, §2

Molecule | kcat [1] [s⁻¹] | kcat [2] [s⁻¹] | kcat [3] [s⁻¹] | change of Km versus GOOX-VN (in words) ([3]; W351F compared with GOOX-VN) | kcat [4] [s⁻¹] | Specific Activity of Enzyme Variants [6] [µmol/min/mg] | Specific Activity of Enzyme Variants [7] [µmol/min/mg] | other results
OC1OC[C@@H](O[C@@H]2OC[C@@H](O)[C@H](O)[C@H]2O)[C@H](O)[C@H]1O (stereo partly drawn) [Xylobiose, xylobiose] | 13.29 ± 0.122 | 11.96 ± 0.125 |  |  |  |  |  | 
OC[C@H]1OC(O)[C@H](O)[C@@H](O)[C@@H]1O (stereo partly drawn) [Glucose, glucose] | 13.22 ± 0.24 | 10.81 ± 0.103 | 5.622 ± 0.08 | increased | 7.485 ± 0.0917 |  |  | catalytic efficiency (in words) ([4]; among glucose, xylose, galactose, NAG): highest catalytic efficiency
OC1OC[C@@H](O)[C@H](O)[C@H]1O (stereo partly drawn) [Xylose, xylose] | 11.33 ± 0.137 | 9.932 ± 0.172 | 4.618 ± 0.0633 | increased | 5.248 ± 0.15 |  |  | 
OC[C@H]1OC(O)[C@H](O)[C@@H](O)[C@H]1O (stereo partly drawn) [Galactose, galactose] | 13.3 ± 0.245 | 11.76 ± 0.0883 | 6.56 ± 0.075 | decreased | 7.152 ± 0.137 |  |  | change of catalytic efficiency versus GOOX-VN (in words) ([3]; W351F compared with GOOX-VN): higher catalytic efficiency
OC1OC[C@@H](O[C@@H]2OC[C@@H](O[C@@H]3OC[C@@H](O)[C@H](O)[C@H]3O)[C@H](O)[C@H]2O)[C@H](O)[C@H]1O (stereo partly drawn) [Xylotriose, xylotriose] | 13.87 ± 0.11 | 11.97 ± 0.185 |  |  |  |  |  | 
CC(=O)N[C@H]1C(O)O[C@H](CO)[C@@H](O)[C@@H]1O (stereo partly drawn) [NAG, N-acetylglucosamine] |  | 11.34 ± 0.113 | 7.785 ± 0.718 |  | 8.078 ± 0.203 |  |  | 
OC[C@H]1O[C@@H](O[C@H]2[C@H](O)[C@@H](O)C(O)O[C@@H]2CO)[C@H](O)[C@@H](O)[C@@H]1O (stereo partly drawn) [Cellobiose, cellobiose] | 13.72 ± 0.258 | 11.4 ± 0.187 |  |  |  |  |  | 
Y72F: GOOX-VN mutant with Y72F substitution (protein) NSINACLAAADVEFHEEDSEGWEMDGTAFNLRVDYDPVAIAIPRSTEDIAAAVQCGLDAGVQISAKGGGHSFGSYGFGGEDGHLMLELDRMYRVSVDDDNVATIQGGARLGYTALELLDQGNRALTHGTCPAVGIGGHVLGGGYGFATHTHGLTLDWLVGATVVLADASIVHVSKTENADLFWALRGGGGGFAIVSEFEFNTFEAPEIITTYQVTTTWNRKQHVAGLKALQDWAENTMPRELSMRLEINANALNWEGNYFGNAKDLKKVLQPIMKKAGGKSTISKLVETDWYGQINTYLYGADLNITYNYDVHEYFYANSLTAPRLSDEAISAFVDYKFDNSSVRPGRGWWIQWDFHGGKNSALASHSNDETAYAHRDQLWLWQFYDNIYDYENNTSPYPESGFEFMQGFVATIEDTLPEDRKGKYFNYADTTLDKEEAQKLYWRGNLEKLQAIKAKYDPEDVFGNVVSVEPIA |  |  |  |  |  | 0.2 | 0.5 | Specific Activity of Enzyme Variants [5]: 0.4 µmol/min/mg
Y72A: GOOX-VN mutant with Y72A substitution (protein) NSINACLAAADVEFHEEDSEGWEMDGTAFNLRVDYDPVAIAIPRSTEDIAAAVQCGLDAGVQISAKGGGHSAGSYGFGGEDGHLMLELDRMYRVSVDDDNVATIQGGARLGYTALELLDQGNRALTHGTCPAVGIGGHVLGGGYGFATHTHGLTLDWLVGATVVLADASIVHVSKTENADLFWALRGGGGGFAIVSEFEFNTFEAPEIITTYQVTTTWNRKQHVAGLKALQDWAENTMPRELSMRLEINANALNWEGNYFGNAKDLKKVLQPIMKKAGGKSTISKLVETDWYGQINTYLYGADLNITYNYDVHEYFYANSLTAPRLSDEAISAFVDYKFDNSSVRPGRGWWIQWDFHGGKNSALASHSNDETAYAHRDQLWLWQFYDNIYDYENNTSPYPESGFEFMQGFVATIEDTLPEDRKGKYFNYADTTLDKEEAQKLYWRGNLEKLQAIKAKYDPEDVFGNVVSVEPIA |  |  |  |  |  | 1.1 | 2.1 | Specific Activity of Enzyme Variants [8]: 2.2 µmol/min/mg; Specific Activity of Enzyme Variants [9]: 2.5 µmol/min/mg; Specific Activity of Enzyme Variants [5]: 3.2 µmol/min/mg; Specific Activity of Enzyme Variants [10]: 0.5 µmol/min/mg; Specific Activity of Enzyme Variants [11]: 1.3 µmol/min/mg
Q384A: GOOX-VN mutant with Q384A substitution (protein) NSINACLAAADVEFHEEDSEGWEMDGTAFNLRVDYDPVAIAIPRSTEDIAAAVQCGLDAGVQISAKGGGHSYGSYGFGGEDGHLMLELDRMYRVSVDDDNVATIQGGARLGYTALELLDQGNRALTHGTCPAVGIGGHVLGGGYGFATHTHGLTLDWLVGATVVLADASIVHVSKTENADLFWALRGGGGGFAIVSEFEFNTFEAPEIITTYQVTTTWNRKQHVAGLKALQDWAENTMPRELSMRLEINANALNWEGNYFGNAKDLKKVLQPIMKKAGGKSTISKLVETDWYGQINTYLYGADLNITYNYDVHEYFYANSLTAPRLSDEAISAFVDYKFDNSSVRPGRGWWIQWDFHGGKNSALASHSNDETAYAHRDQLWLWAFYDNIYDYENNTSPYPESGFEFMQGFVATIEDTLPEDRKGKYFNYADTTLDKEEAQKLYWRGNLEKLQAIKAKYDPEDVFGNVVSVEPIA |  |  |  |  |  | 0.2 | 0.4 | Specific Activity of Enzyme Variants [8]: 0.1 µmol/min/mg

— patent US20140057332A1, “GLUCO-OLIGOSACCHARIDE OXIDASES FROM ACREMONIUM STRICTUM AND USES THEREOF” (The Governing Council of the University of Toronto, priority 2011, published 2014)
